Data as given in ChEMBL document CHEMBL1138862 (J Med Chem, 2006).

Experiments:
Assay type in all cases: functional
[1] = tested on: Escherichia coli; assay: Antibacterial activity against Escherichia coli pTMV19 in presence of mevalonate
[2] = tested on: Escherichia coli; assay: Antibacterial activity against Escherichia coli W3110
[3] = tested on: Escherichia coli; assay: Antibacterial activity against Escherichia coli pTMV19

Row | Structure (SMILES) | inhibition zone (IZ) [1] [mm] | inhibition zone (IZ) [2] [mm] | inhibition zone (IZ) [3] [mm]
1 | O=P(O)(O)C(O)(Cc1cccc(C(F)(F)F)c1)P(=O)(O)O | 0 | 7 | 7
2 | CCCCCCCCCC(O)(P(=O)(O)O)P(=O)(O)O | 0 | 9 | 0
3 | CCCCCCc1ccc(NC(P(=O)(O)O)P(=O)(O)O)cc1 | 0 | 0 | 0
4 | CCc1ccc(NC(P(=O)(O)O)P(=O)(O)O)cc1 |  | 0 | 
5 | CCCCCCCCc1ccc(C(O)(P(=O)(O)O)P(=O)(O)O)cc1 | 0 | 0 | 0
6 | CC(C)(C)c1cc(NC(P(=O)(O)O)P(=O)(O)O)cc(C(C)(C)C)c1 |  | 0 | 
7 | O=P(O)(O)C(N1CCCCC1)P(=O)(O)O |  | 0 | 
8 | CCCCc1ccc(NC(P(=O)(O)O)P(=O)(O)O)cc1 |  | 0 | 
9 | CCC(C)CNC(P(=O)(O)O)P(=O)(O)O (stereo not drawn) |  | 0 | 
10 | CCCCCCCCCCCCCCCC(O)(P(=O)(O)O)P(=O)(O)O |  | 0 | 
11 | O=P(O)(O)C(Nc1cccc(-c2ccccc2)c1)P(=O)(O)O | 0 | 8 | 8
12 | NCCCCCC(O)(P(=O)(O)O)P(=O)(O)O [NERIDRONIC ACID] |  | 0 | 
13 | CCCN(CCC)C(P(=O)(O)O)P(=O)(O)O [(DIPROPYLAMINO)METHYLENEDIPHOSPHONIC ACID] |  | 0 | 
14 | CC(C)(C)c1cccc(NC(P(=O)(O)O)P(=O)(O)O)c1 | 0 | 7 | 7
15 | O=P(O)(O)C(Nc1ccc(I)cn1)P(=O)(O)O | 7 | 7 | 7
16 | CC(N)CC(O)(P(=O)(O)O)P(=O)(O)O (stereo not drawn) |  | 0 | 
17 | CC1CCCC(C)N1C(P(=O)(O)O)P(=O)(O)O (stereo not drawn) |  | 0 | 
18 | CCCC(O)(P(=O)(O)O)P(=O)(O)O |  | 0 | 
19 | O=P(O)(O)C(O)(C1CCC1)P(=O)(O)O [CYCLOBUTYL(HYDROXY)METHYLENEDIPHOSPHONIC ACID] |  | 0 | 
20 | O=P(O)(O)C(O)(Cc1ccccn1)P(=O)(O)O |  | 0 | 
21 | O=P(O)(O)C(Nc1cc2ccccc2cn1)P(=O)(O)O |  | 0 | 

Row | Structure (SMILES) | inhibition zone (IZ) [1] [mm] | inhibition zone (IZ) [2] [mm] | inhibition zone (IZ) [3] [mm]
22 | O=P(O)(O)C(NC1CCCCCCC1)P(=O)(O)O [(CYCLOOCTYLAMINO)METHYLENEDIPHOSPHONIC ACID] | 0 | 7 | 8
23 | CN(Cc1ccccc1)C(P(=O)(O)O)P(=O)(O)O |  | 0 | 
24 | O=P(O)(O)C(NC1CCCCCC1)P(=O)(O)O [INCADRONIC ACID] |  | 0 | 
25 | O=P(O)(O)C(O)(Cc1cccc(Cl)c1)P(=O)(O)O | 0 | 8 | 11
26 | O=P(O)(O)C(Nc1ccccn1)P(=O)(O)O | 12 | 7 | 8
27 | O=P(O)(O)C(Nc1ccc(Cl)cc1Cl)P(=O)(O)O [2,4-DICHLOROPHENYLAMINOMETHYLENEBISPHOSPHONIC ACID] |  | 0 | 
28 | CCCCCCCCNC(P(=O)(O)O)P(=O)(O)O [(OCTYLAMINO)METHYLENEDIPHOSPHONIC ACID] |  | 0 | 
29 | O.O=P(O)(O)C(O)(Cn1ccnc1)P(=O)(O)O [ZOLEDRONIC ACID] |  | 0 | 
30 | O=P(O)(O)C(NC1CCCCC1)P(=O)(O)O [(CYCLOHEXYLAMINO)METHYLENEDIPHOSPHONIC ACID] | 9 | 7 | 8
31 | CCCNC(P(=O)(O)O)P(=O)(O)O [(PROPYLAMINO)METHYLENEDIPHOSPHONIC ACID] |  | 0 | 
32 | O=P(O)(O)C(Nc1cccnc1Cl)P(=O)(O)O |  | 0 | 
33 | O=P(O)(O)C(N1CCSCC1)P(=O)(O)O [THIOMORPHOLINOMETHYLENEDIPHOSPHONIC ACID] |  | 0 | 
34 | O=P(O)(O)C(O)(CSc1ccncc1)P(=O)(O)O |  | 0 | 
35 | O=P(O)(O)C(N1CCCCCCC1)P(=O)(O)O [N-(HEPTAMETHYLENEIMINO)METHYLENEBISPHOSPHONIC ACID] |  | 0 | 
36 | Cc1cccnc1NCC(P(=O)(O)O)S(=O)(=O)O (stereo not drawn) |  | 0 | 
37 | CCCCOc1ccc(NC(P(=O)(O)O)P(=O)(O)O)cc1 |  | 0 | 
38 | CCCCCCCCCCCCCCCCCC(O)(P(=O)(O)O)P(=O)(O)O |  | 0 | 
39 | O=P(O)(O)Cc1cccc(CP(=O)(O)O)c1 |  | 0 | 
40 | O=P(O)(O)C(O)(C1CC1)P(=O)(O)O [CYCLOPROPYL(HYDROXY)METHYLENEDIPHOSPHONIC ACID] |  | 0 | 
41 | CCc1cccc(NC(P(=O)(O)O)P(=O)(O)O)c1 |  | 0 | 
42 | CCCCC(O)(P(=O)(O)O)P(=O)(O)O |  | 0 | 

Row | Structure (SMILES) | inhibition zone (IZ) [1] [mm] | inhibition zone (IZ) [2] [mm] | inhibition zone (IZ) [3] [mm]
43 | O=P(O)(O)C(Nc1ncccc1COc1ccccc1)P(=O)(O)O |  | 0 | 
44 | Cc1nc(NC(P(=O)(O)O)P(=O)(O)O)c(Br)cc1Br |  | 0 | 
45 | CCCCNC(P(=O)(O)O)P(=O)(O)O [(BUTYLAMINO)METHYLENEDIPHOSPHONIC ACID] |  | 0 | 
46 | O=P(O)(O)C(Nc1cccnc1)P(=O)(O)O |  | 0 | 
47 | CC1CCCCN1C(P(=O)(O)O)P(=O)(O)O (stereo not drawn) |  | 0 | 
48 | CCCCCN(C)CCC(O)(P(=O)(O)O)P(=O)(O)O [IBANDRONIC ACID] |  | 0 | 
49 | CC1CCCN(C(P(=O)(O)O)P(=O)(O)O)C1 (stereo not drawn) |  | 0 | 
50 | Nc1ccc(CC(O)(P(=O)(O)O)P(=O)(O)O)cc1 |  | 0 | 
51 | CCC(C)NC(P(=O)(O)O)P(=O)(O)O (stereo not drawn) |  | 0 | 
52 | NCCC(O)(P(=O)(O)O)P(=O)(O)O [PAMIDRONIC ACID] |  | 0 | 
53 | O=P(O)(O)C(Nc1ncc(Br)cc1Br)P(=O)(O)O |  | 0 | 
54 | O=P(O)(O)C(O)(Cc1ccncc1)P(=O)(O)O |  | 0 | 
55 | O=P(O)(O)C(Nc1ccc(Cl)nc1)P(=O)(O)O |  | 0 | 
56 | O=P(O)(O)CC(c1ccncc1)P(=O)(O)O (stereo not drawn) |  | 0 | 
57 | CCCCCCC(O)(P(=O)(O)O)P(=O)(O)O |  | 0 | 
58 | CC1CCN(C(P(=O)(O)O)P(=O)(O)O)CC1 |  | 0 | 
59 | O=P(O)(O)C(O)(CCc1cccnc1)P(=O)(O)O |  | 0 | 
60 | O=P(O)(O)C(O)(Cc1cn2ccccc2n1)P(=O)(O)O |  | 0 | 
61 | O=P(O)(O)C(CNc1cccnc1)P(=O)(O)O |  | 0 | 
62 | CC(C)c1cccc(C(C)C)c1NC(P(=O)(O)O)P(=O)(O)O |  | 0 | 
63 | CCCCCCCCCCCCCC(O)(P(=O)(O)O)P(=O)(O)O |  | 0 | 

Row | Structure (SMILES) | inhibition zone (IZ) [1] [mm] | inhibition zone (IZ) [2] [mm] | inhibition zone (IZ) [3] [mm]
64 | O=P(O)(O)C(=Nc1cccnc1)P(=O)(O)O |  | 0 | 
65 | CCC1CCCCN1C(P(=O)(O)O)P(=O)(O)O (stereo not drawn) |  | 0 | 
66 | CC1CC(C)CN(C(P(=O)(O)O)P(=O)(O)O)C1 (stereo not drawn) |  | 0 | 
67 | O=P(O)(O)C(NC1CCCC1)P(=O)(O)O [(CYCLOPENTYLAMINO)METHYLENEDIPHOSPHONIC ACID] |  | 0 | 
68 | CC(C)CCNC(P(=O)(O)O)P(=O)(O)O [(ISOPENTYLAMINO)METHYLENEDIPHOSPHONIC ACID] |  | 0 | 
69 | O=P(O)(O)C(Nc1c(F)c(F)c(F)c(F)c1F)P(=O)(O)O |  | 0 | 
70 | O=P(O)(O)C(O)(Cc1cccnc1)P(=O)(O)O [RISEDRONIC ACID] |  | 0 | 
71 | O=P(O)(O)C(O)(Cc1cccc(F)c1)P(=O)(O)O |  | 0 | 
72 | O=P(O)(O)C(CNc1ccccn1)P(=O)(O)O |  | 0 | 
73 | O=P(O)(O)C(O)(Cc1ccccc1)P(=O)(O)O |  | 0 | 
74 | O=P(O)(O)C(NC1CCC1)P(=O)(O)O [(CYCLOBUTYLAMINO)METHYLENEDIPHOSPHONIC ACID] |  | 0 | 
75 | O=P(O)(O)CC(c1cccnc1)P(=O)(O)O (stereo not drawn) |  | 0 | 
76 | O=P(O)(O)C(Nc1ccc2c(c1)CCC2)P(=O)(O)O |  | 0 | 
77 | CCCCCCCCCNC(P(=O)(O)O)P(=O)(O)O [(NONYLAMINO)METHYLENEDIPHOSPHONIC ACID] |  | 0 | 
78 | NCCCCC(O)(P(=O)(O)O)P(=O)(O)O |  | 0 | 
79 | O=P(O)(O)C(Nc1cccc(Oc2ccccc2)c1)P(=O)(O)O |  | 0 | 
80 | CCCCCCCCCCCC(O)(P(=O)(O)O)P(=O)(O)O |  | 0 | 
81 | CCc1cccc(NC(P(=O)(O)O)P(=O)(O)O)n1 |  | 0 | 
